Results taken from patent publication EP4603105A1, “PHARMACEUTICAL COMPOSITION CONTAINING CYCLIC COMPOUND HAVING SELECTIVE KRAS INHIBITORY EFFECT AGAINST HRAS AND NRAS” (CHUGAI SEIYAKU KABUSHIKI KAISHA, priority 2022, dated 2024).
Where a SMILES comes first, the peptide text is derived from it. Bridges are numbered along the chain shown (N, C = ends). [ ]: non-standard residue; d: D form. hPhe(3-Cl-4-CF3) = N[C@@H](CCc1ccc(C(F)(F)F)c(Cl)c1)C(=O)O; NPrPhe(4-CF3) = CCCN[C@@H](Cc1ccc(C(F)(F)F)cc1)C(=O)O; NMeGly(cPent) = CN[C@H](C(=O)O)C1CCCC1; Pro(4,4-F2) = O=C(O)[C@@H]1CC(F)(F)CN1; NMeD = CN[C@@H](CC(=O)O)C(=O)O; NMeL = CN[C@@H](CC(C)C)C(=O)O; Aze = O=C(O)[C@@H]1CCN1; Ac4c = NC1(C(=O)O)CCC1; Sar = CNCC(=O)O

How the values were obtained:
[1] = molecular target: GDP-bound KRAS wild-type protein (Homo sapiens, UniProt P01116); assay: Binding to KRAS by surface plasmon resonance (SPR), dissociation constant KD
How it was run: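 GDP-bound biotin-Avi RAS captured at ~100–300 RU, 30°C, pH 7.4 HBS containing 10 µM GDP, 10 mM MgCl2, 1 mM DTT, 0.01% Tween 20 and 4% DMSO. KD by 1:1 fitting.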

[2] = molecular target: GDP-bound NRAS wild-type protein (Homo sapiens, UniProt P01111); assay: Binding to NRAS by surface plasmon resonance (SPR), KD and KD ratio to KRAS
How it was run: (§1)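 Biotinylated GDP-bound RAS was captured at about 100–300 RU. Running buffer: HBS pH 7.4, 10 mM MgCl2, 10 µM GDP, 1 mM DTT, 0.01% Tween 20, 4% DMSO.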

HRAS wild-type protein = HRAS wild-type protein (Homo sapiens, UniProt P01112); assay: Binding to HRAS by surface plasmon resonance (SPR), KD and KD ratio to KRAS
How it was run: as §1

[3] = system: human lung cancer strain NCI-H441; assay type: cell-based
How it was run: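 Step one: dispense the test compound in serial DMSO dilutions. Step three: add the reagent and measure […].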

[4] = ratio of KD for GDP-bound NRAS wild-type protein to KD for KRAS
[5] = ratio of KD for HRAS wild-type protein to KD for KRAS
[6] = Single Cycle Kinetics, 1:1 binding model
[7] = ratio of the KD value with respect to GDP-bound NRAS wild-type protein to the KD value with respect to KRAS
[8] = ratio of the KD value with respect to HRAS wild-type protein to the KD value with respect to KRAS

Chain of HRAS wild-type protein (P01112 whole entry): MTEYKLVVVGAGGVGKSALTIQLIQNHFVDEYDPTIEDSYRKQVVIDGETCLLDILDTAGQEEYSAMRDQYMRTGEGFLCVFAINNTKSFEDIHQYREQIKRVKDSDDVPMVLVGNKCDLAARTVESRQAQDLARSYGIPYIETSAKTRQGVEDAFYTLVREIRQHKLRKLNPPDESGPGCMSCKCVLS
Chain of GDP-bound NRAS wild-type protein (P01111 whole entry): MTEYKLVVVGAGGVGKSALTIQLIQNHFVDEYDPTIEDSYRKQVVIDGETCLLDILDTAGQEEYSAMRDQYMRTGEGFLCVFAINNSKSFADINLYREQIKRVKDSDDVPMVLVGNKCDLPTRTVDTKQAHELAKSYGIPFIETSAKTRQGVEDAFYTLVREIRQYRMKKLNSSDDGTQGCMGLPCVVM
Chain of GDP-bound KRAS wild-type protein (P01116 1-188 isoform P01116-2): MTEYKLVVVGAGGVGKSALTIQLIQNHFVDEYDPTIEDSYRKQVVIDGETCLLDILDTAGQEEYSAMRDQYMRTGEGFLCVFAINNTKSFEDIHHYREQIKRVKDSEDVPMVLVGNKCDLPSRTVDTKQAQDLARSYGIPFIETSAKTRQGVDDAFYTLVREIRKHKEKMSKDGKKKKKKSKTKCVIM

SMILES	Kd ([1]; Single Cycle Kinetics) [nM]	IC50 [3] [nM]	Kd [1, 6] [nM]	Kd ([1]; 1:1 binding model) [nM]	NRAS /KRAS [2, 4]	HRAS /KRAS (HRAS wild-type protein; [5])	NRAS /KRAS [2, 7]	HRAS /KRAS (HRAS wild-type protein; [8])
CCCN1C(=O)CN(C)C(=O)[C@@H]2CCN2C(=O)[C@H]([C@@H](C)CC)NC(=O)[C@H](CC(C)C)N(C)C(=O)C[C@@H](C(=O)N(C)C)N(C)C(=O)[C@H](C2CCCC2)N(C)C(=O)C2(CCC2)NC(=O)[C@@H]2CC(F)(F)CN2C(=O)[C@H](CCc2ccc(C(F)(F)F)c(Cl)c2)NC(=O)CN(C)C(=O)[C@@H]1Cc1ccc(C(F)(F)F)cc1 [PP0432] ([NMeL]I[Aze][Sar][NPrPhe(4-CF3)][Sar][hPhe(3-Cl-4-CF3)][Pro(4,4-F2)][Ac4c][NMeGly(cPent)][NMeD]-NMe2; lactam N-11)	–	10.7	0.17	–	–	–	B (a compound having 3 or more and less than 10 is denoted as B)	B (a compound having 3 or more and less than 10 is denoted as B)
CCC(CC)[C@H]1C(=O)N(C)[C@H](C(=O)N(C)C)CC(=O)N(C)[C@@H](COC)C(=O)N[C@@H]([C@@H](C)CC)C(=O)N(C)CC(=O)N(C)[C@H]2C/C=C\CCN(C2=O)[C@@H](Cc2ccc(C)cc2)C(=O)N(C)CC(=O)N[C@@H](CCc2ccc(Cl)c(Cl)c2)C(=O)N2C[C@H](OC(C)C)C[C@H]2C(=O)N(C)C2(CC(C)(C)C2)C(=O)N1C [PP2814]	–	44.4	–	0.37	AA (a compound having 20 or more is denoted as AA)	A (a compound having 10 or more and less than 20 is denoted as A)	–	–
CCO[C@@H]1C[C@H]2C(=O)NC3(CC(C)(C)C3)C(=O)N(C)[C@@H](C3CCCC3)C(=O)N(C)[C@H](C(=O)N(C)CC)CC(=O)N(C)[C@@H](CC(C)C)C(=O)N[C@@H]([C@@H](C)CC)C(=O)N(C)CC(=O)N(C)[C@H]3C/C=C\CCN(C3=O)[C@@H](Cc3ccc(C(F)F)cc3)C(=O)N(C)CC(=O)N[C@@H](CCc3ccc(C(F)(F)F)c(CC)c3)C(=O)N2C1 [PP3141]	–	9.8	–	0.25	A (a compound having 10 or more and less than 20 is denoted as A)	A (a compound having 10 or more and less than 20 is denoted as A)	–	–
CCO[C@@H]1C[C@H]2C(=O)NC3(CC(C)(C)C3)C(=O)N(C)[C@@H](C3CCCC3)C(=O)N(C)[C@H](C(=O)N(C)CC)CC(=O)N(C)[C@@H](CC(C)C)C(=O)N[C@@H]([C@@H](C)CC)C(=O)N(C)CC(=O)N(C)[C@H]3C/C=C\CCN(C3=O)[C@@H](Cc3ccc(C(F)F)cc3)C(=O)N(C)CC(=O)N[C@@H](CCc3cc(C)c(C(F)F)c(F)c3)C(=O)N2C1 [PP3145]	–	29.9	–	0.69	A (a compound having 10 or more and less than 20 is denoted as A)	A (a compound having 10 or more and less than 20 is denoted as A)	–	–
CC[C@H](C)[C@@H]1NC(=O)[C@H](CC)N(C)C(=O)C[C@@H](C(=O)N2CCOCC2)N(C)C(=O)[C@H](C2CCCC2)N(C)C(=O)C2(CCCC2)NC(=O)[C@@H]2CCCN2C(=O)[C@H](CCc2ccc(C(F)(F)F)c(Cl)c2)NC(=O)CN(C)C(=O)[C@H](Cc2ccc(F)cc2)N2CCCCC[C@@H](C2=O)N(C)C(=O)CN(C)C1=O [PP0959]	0.39	156	–	–	B (a compound having 3 or more and less than 10 is denoted as B)	B (a compound having 3 or more and less than 10 is denoted as B)	–	–
CCO[C@@H]1C[C@H]2C(=O)NC3(CC(C)(C)C3)C(=O)N(C)[C@@H](C3CCCC3)C(=O)N(C)[C@H](C(=O)N(C)CC)CC(=O)N(C)[C@@H](CC(C)C)C(=O)N[C@@H]([C@@H](C)CC)C(=O)N(C)CC(=O)N(C)[C@H]3C/C=C\CCN(C3=O)[C@@H](Cc3ccc(C(F)F)cc3)C(=O)N(C)CC(=O)N[C@@H](CCc3cc(C)c(C(F)F)c(C)c3)C(=O)N2C1 [PP3144]	–	72.7	–	4.3	A (a compound having 10 or more and less than 20 is denoted as A)	A (a compound having 10 or more and less than 20 is denoted as A)	–	–

Second part, led by results:

Kd ([1]; Single Cycle Kinetics) [nM]	IC50 [3] [nM]	Kd [1, 6] [nM]	Kd ([1]; 1:1 binding model) [nM]	SMILES	NRAS /KRAS [2, 4]	HRAS /KRAS (HRAS wild-type protein; [5])	NRAS /KRAS [2, 7]	HRAS /KRAS (HRAS wild-type protein; [8])
0.96	66.7	–	–	CCO[C@@H]1C[C@H]2C(=O)NC3(CCC3)C(=O)N(C)[C@@H](C3CCCC3)C(=O)N(C)[C@H](C(=O)N3CCOCC3)CC(=O)N(C)[C@@H](Cc3cccc(F)c3)C(=O)N[C@@H]([C@@H](C)CC)C(=O)N(C)CC(=O)N(C)[C@H]3CCCCCN(C3=O)[C@@H](Cc3ccc(C(F)(F)F)cc3)C(=O)N(C)CC(=O)N[C@@H](CCc3cc(F)c(C(F)(F)F)c(F)c3)C(=O)N2C1 [PP0856]	B (a compound having 3 or more and less than 10 is denoted as B)	B (a compound having 3 or more and less than 10 is denoted as B)	–	–
0.13	11.5	–	–	CCO[C@@H]1C[C@H]2C(=O)NC3(CCC3)C(=O)N(C)[C@@H](C3CCCC3)C(=O)N(C)[C@H](C(=O)N3CCOCC3)CC(=O)N(C)[C@@H](CC(C)C)C(=O)N[C@@H]([C@@H](C)CC)C(=O)N(C)CC(=O)N(C)[C@H]3CC=C(C)CN(C3=O)[C@@H](Cc3ccc(C(F)(F)F)cc3)C(=O)N(C)CC(=O)N[C@@H](CCc3cc(F)c(C(F)(F)F)c(F)c3)C(=O)N2C1 [PP0826]	C (A compound having a KD ratio of 0.1 or more and less than 3 is denoted as C)	B (a compound having 3 or more and less than 10 is denoted as B)	–	–
–	7.3	–	0.083	CCO[C@@H]1C[C@H]2C(=O)NC3(CCC3)C(=O)N(C)[C@@H](C3CCCC3)C(=O)N(C)[C@H](C(=O)N(C)CC)CC(=O)N(C)[C@@H](CC(C)C)C(=O)N[C@@H]([C@@H](C)CC)C(=O)N(C)CC(=O)N(C)[C@H]3C/C=C\CCN(C3=O)[C@@H](Cc3ccc(C(F)(F)F)cc3)C(=O)N(C)CC(=O)N[C@@H](CCc3ccc(C(F)(F)F)c(Cl)c3)C(=O)N2C1 [PP2847]	A (a compound having 10 or more and less than 20 is denoted as A)	A (a compound having 10 or more and less than 20 is denoted as A)	–	–
0.56	75.7	–	–	CC[C@H](C)[C@@H]1NC(=O)[C@H](CC(C)C)N(C)C(=O)C[C@@H](C(=O)N2CCOCC2)N(C)C(=O)[C@H](C2CCCC2)N(C)C(=O)C2(CCC2)NC(=O)[C@@H]2[C@H]3C[C@H]3CN2C(=O)[C@H](CCc2cc(F)c(C(F)(F)F)c(F)c2)NC(=O)CN(C)C(=O)[C@H](Cc2ccc(C(F)(F)F)cc2)N2CCCCC[C@@H](C2=O)N(C)C(=O)CN(C)C1=O [PP0819]	A (a compound having 10 or more and less than 20 is denoted as A)	B (a compound having 3 or more and less than 10 is denoted as B)	–	–
–	50.3	0.27	–	CCC[C@@H]1C[C@H]2C(=O)NC3(CCCC3)C(=O)N(C)[C@@H](C3CCCC3)C(=O)N(C)[C@H](C(=O)N(C)C)CC(=O)N(C)[C@@H](CC)C(=O)N[C@@H]([C@@H](C)CC)C(=O)N(C)CC(=O)N(C)[C@H]3C/C=C\CCN(C3=O)[C@@H](Cc3ccc(C)cc3)C(=O)N(C)CC(=O)N[C@@H](CCc3cc(F)c(C(F)(F)F)c(F)c3)C(=O)N2C1 [PP2227]	–	–	A (a compound having 10 or more and less than 20 is denoted as A)	A (a compound having 10 or more and less than 20 is denoted as A)
0.32	40.5	–	–	CCO[C@@H]1C[C@H]2C(=O)NC3(CCC3)C(=O)N(C)[C@@H](C3CCCC3)C(=O)N(C)[C@H](C(=O)N(C)C)CC(=O)N(C)[C@@H](CC)C(=O)N[C@@H]([C@@H](C)CC)C(=O)N(C)CC(=O)N(C)[C@H]3CCCCCN(C3=O)[C@@H](Cc3ccc(F)c(C)c3)C(=O)N(C)CC(=O)N[C@@H](CCc3cc(F)c(C(F)(F)F)c(F)c3)C(=O)N2C1 [PP0912]	B (a compound having 3 or more and less than 10 is denoted as B)	B (a compound having 3 or more and less than 10 is denoted as B)	–	–
